Experimental findings from PubChem BioAssay (NCI) are described below.

Holding throughout (experiment): NCI anticancer screen, dose series, 48 h
Assay [1] has as its system HS 578T breast.
The subject of assay [2] is SK-MEL-28 melanoma.
Assay [3] relates to MOLT-4 leukemia.
The subject of assay [4] is COLO 205 colon.
In assay [5] the test system is NCI-H226 lung.
Assay [6] concerns OVCAR-8 ovarian.
The test system of assay [7] is A549 NSCLC.
Assay [8] relates to SK-MEL-5 melanoma.
Assay [9] concerns PC-3 prostate.
Assay [10] relates to M14 melanoma.

Each structure is given as a SMILES string.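 Grown in 96-well plates, cells were treated for 48 hours with each compound at five concentrations. Insufficient inhibition: endpoint recorded as highest concentration tested. Here, GI50 denotes the concentration required for 50% inhibition of growth. TGI marks complete inhibition of growth.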

Regarding `O=C1C2=C(Nc3cc([N+](=O)[O-])ccc3N2)OC1c1c[nH]c2ccc(COc3ccccc3)cc12` (stereo not given), the TGI is more than 100 µM in assay [1]; more than 100 µM in [2]; 40.4 µM in assay [3]; 55.8 µM in assay [4]; more than 100 µM in assay [5]; more than 100 µM in [6]. Moreover, the TGI in [7], in assay [8], in [9] and in [10] was more than 100 µM throughout.
In the case of `O=C(/C=C\c1ccc(Cl)c(Cl)c1)c1ccccc1`, the GI50 in assay [1] was 17 µM; in assay [2], 13.9 µM; in assay [3], 5.36 µM; in assay [4] it was 13.6 µM; in [5] it was 13.9 µM; in assay [6], 3.98 µM. For the same molecule, the GI50 in [7] was 11.5 µM; in assay [8] it was 16.7 µM; in assay [9], 5.93 µM; in assay [10] it was 7.37 µM. The TGI is 52.5 µM in [1]; 27.3 µM in assay [2]; 40.3 µM in [3]; 29.7 µM in assay [4]; 30.7 µM in assay [5]; 15.1 µM in assay [6]. Further, the TGI in assay [7] came out at 26.2 µM; in [8], 30.9 µM; in [9] it was 20.7 µM; in assay [10] it was 21.5 µM.
